In ChEMBL document CHEMBL1833864, “N'-(arylsulfonyl)pyrazoline-1-carboxamidines as novel, neutral 5-hydroxytryptamine 6 receptor (5-HT₆R) antagonists with unique structural features” (J Med Chem, 2011) one finds hepatocyte CLint and Ki data, which are given here for 18 molecules.

Series [1] is described as follows: in vitro. Conditions: human, hepatocytes.
Series [2] can be described thus: in vitro. To be noted: Sprague-Dawley, rat, hepatocytes.
Series [3] concerns the target 5-hydroxytryptamine receptor 6 (Homo sapiens, UniProt P50406). Put plainly: Displacement of [3H]-methyllysergic acid diethylamide from human 5-HT6 receptor expressed in CHO cells after 30 mins by liquid scintillation counting. It counts as cell-based.

Chain of 5-hydroxytryptamine receptor 6 (P50406 whole entry): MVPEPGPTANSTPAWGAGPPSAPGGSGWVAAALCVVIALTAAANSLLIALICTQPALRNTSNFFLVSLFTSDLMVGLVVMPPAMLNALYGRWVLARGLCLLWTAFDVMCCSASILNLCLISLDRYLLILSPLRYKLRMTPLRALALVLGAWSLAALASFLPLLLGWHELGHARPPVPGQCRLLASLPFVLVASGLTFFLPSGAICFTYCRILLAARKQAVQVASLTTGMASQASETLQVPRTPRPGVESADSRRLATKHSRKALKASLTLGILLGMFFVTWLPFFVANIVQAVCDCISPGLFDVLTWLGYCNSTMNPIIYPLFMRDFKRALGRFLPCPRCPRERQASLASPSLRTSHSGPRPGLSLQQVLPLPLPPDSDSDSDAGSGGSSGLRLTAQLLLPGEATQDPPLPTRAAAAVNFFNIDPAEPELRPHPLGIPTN

Turning to `CCN/C(=N\S(=O)(=O)c1ccccc1Cl)N1CC(CC)C=N1` (centres undefined), the hepatocyte CLint (commonly a measure of how fast metabolising enzymes remove a compound, apart from limits set by blood flow) at 1 ug/mL in the series “in vitro [1]” came to 39 µL/min/1e6 cells; in “in vitro [2]”, 99 µL/min/1e6 cells. Also, the Ki (usually a measure of affinity in units of concentration, obtained from inhibition or displacement) in series [3] was determined as 27.8 nM.

In series [3], `CCC1C=NN(/C(=N/S(=O)(=O)c2ccccc2Cl)NCc2ccccc2)C1` (centres undefined) had a Ki of 92 nM.

`CCC1C=NN(/C(=N/S(=O)(=O)c2ccccc2Cl)Nc2ccccc2)C1` (centres undefined) showed a Ki in series [3] of over 1000 nM.

Turning to `CCC1C=NN(/C(=N/S(=O)(=O)c2ccccc2Cl)NC(C)C)C1` (centres undefined), the Ki in series [3] was over 1000 nM.

Molecule `CCN/C(=N\S(=O)(=O)c1ccccc1)N1CC(CC)C=N1` (centres undefined) yielded a Ki in series [3] of 33.9 nM.

In series [3], `CCCN/C(=N\S(=O)(=O)c1cccc(Cl)c1)N1CC(CC)C=N1` (centres undefined) had a Ki of 14.6 nM.

In the case of `CCC1C=NN(/C(=N/S(=O)(=O)c2cccc(Cl)c2)NC)C1` (centres undefined), in series [3], the Ki was 17.8 nM.

For `CCC1C=NN(/C(N)=N/S(=O)(=O)c2cccc(Cl)c2)C1` (centres undefined), the Ki in series [3] amounted to 24.2 nM. This Ki and that of the molecule before are within 1.5-fold of each other.

For `CCN/C(=N\S(=O)(=O)c1cccc(Cl)c1)N1CC(C)C=N1` (centres undefined), the Ki in series [3] amounted to 8 nM.

`CCN/C(=N\S(=O)(=O)c1cccc(Cl)c1)N1CCC=N1`: the Ki in series [3] stood at 33.9 nM.

In series [3], `CCN/C(=N\S(=O)(=O)c1cccc(Cl)c1)N1CCC(C)=N1` returned a Ki of 231 nM.

As for `CCC1C=NN(/C(=N/S(=O)(=O)c2cccc(Cl)c2)N(C)C)C1` (centres undefined), the Ki in series [3] was over 1000 nM.

In the case of `CCN=C(NS(=O)(=O)c1cccc(Cl)c1)N1N=CC[C@H]1c1ccccc1`, the hepatocyte CLint at 1 ug/mL in the series “in vitro [1]” is 107 µL/min/1e6 cells; in the series “in vitro [2]”, 116 µL/min/1e6 cells.

On to `CCN=C(NS(=O)(=O)c1cccc(Cl)c1)N1N=CC[C@@H]1c1ccccc1`, for which the hepatocyte CLint at 1 ug/mL in “in vitro [2]” amounted to 107 µL/min/1e6 cells.

In the case of `CCN/C(=N\S(=O)(=O)c1cccc(C(F)(F)F)c1)N1CC(CC)C=N1` (centres undefined), the hepatocyte CLint at 1 ug/mL in “in vitro [1]” was 27 µL/min/1e6 cells; in “in vitro [2]”, 116 µL/min/1e6 cells. The molecule further gave a Ki in series [3] of 17.9 nM.

As to `CCN/C(=N\S(=O)(=O)c1cccc(C)c1)N1CC(CC)C=N1` (centres undefined), the hepatocyte CLint at 1 ug/mL came to 51 µL/min/1e6 cells in the series “in vitro [1]” and 116 µL/min/1e6 cells in the series “in vitro [2]”. The molecule further displayed an inhibitory constant (Ki) in series [3] of 27.4 nM.

In the case of `CCN/C(=N\S(=O)(=O)c1cccc(OC)c1)N1CC(CC)C=N1` (centres undefined), the results for the hepatocyte CLint at 1 ug/mL in the series “in vitro [1]” and in “in vitro [2]” were 46 µL/min/1e6 cells and 92 µL/min/1e6 cells, respectively. For the same molecule, the affinity in series [3] corresponds to a Ki of 26.6 nM.

`CCN/C(=N\S(=O)(=O)c1ccc(Cl)c(Cl)c1)N1CC(CC)C=N1` (centres undefined): the intrinsic clearance (hepatocyte CLint) at 1 ug/mL amounted to 92 µL/min/1e6 cells in the series “in vitro [1]” and 198 µL/min/1e6 cells in the series “in vitro [2]”. Also, the Ki in series [3] is 7.9 nM.
